Structures can show the parent of a compound that is named as a salt.
Columns and labels:
Assay type in all cases: biochemical
[1] = biological target: T1, human JAK1 (a.a. 837-1142) (Homo sapiens, UniProt P23458); experiment: In vitro JAK kinase assay (HTRF, phosphorylation of a biotinylated peptide), JAK1; details: method AA1 (90 μM ATP) or AA2 (1000 μM ATP), not stated per value; read-out: JAK1 IC50
T1 construct: human JAK1 (a.a. 837-1142); His tag (N); made in house; host or cells: insect cells (baculovirus)
Summary of the method: (§1)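 Phosphorylation of a biotinylated peptide by the JAK kinase domain, detected by HTRF with Eu-Py20 and SA-APC. ATP was 90 μM for JAK1, 30 μM for JAK2 and 3 μM for JAK3. Reactions ran 1 h at room temperature and were stopped with EDTA, followed by 40 min antibody binding.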

[2] = biological target: T2, human JAK2 (a.a. 828-1132) (Homo sapiens, UniProt O60674); experiment: In vitro JAK kinase assay (HTRF, phosphorylation of a biotinylated peptide), JAK2; details: method AA1 (30 μM ATP) or AA2 (1000 μM ATP), not stated per value
T2 construct: JAK2 (a.a. 828-1132); His tag (N); made in house; host or cells: insect cells (baculovirus)
Summary of the method: as §1

[3] = biological target: T3, human JAK3 (a.a. 781-1124) (Homo sapiens, UniProt P52333); experiment: In vitro JAK kinase assay (HTRF, phosphorylation of a biotinylated peptide), JAK3; details: method AA1 (3 μM ATP) or AA2 (1000 μM ATP), not stated per value
T3 construct: JAK3 (a.a. 781-1124); His tag (N); made in house; host or cells: insect cells (baculovirus)
Summary of the method: as §1

TYK2 = TYK2 (Homo sapiens, UniProt P29597); experiment: TYK2 kinase inhibition (Table A1)
[4] = biological target: T4, Recombinant Human Anaplastic Lymphoma Kinase (Homo sapiens, UniProt Q9UM73); experiment: ALK HTRF kinase assay; details: compound at 500 nM or 1 mM; 90 μM ATP
T4 construct: purchased Invitrogen, Carlsbad, Calif
Summary of the method: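 Recombinant human ALK with biotinylated peptide substrate; phosphorylation detected by HTRF using Eu-labelled anti-phosphotyrosine antibody and streptavidin-allophycocyanin. IC50 from a sigmoidal fit with Hill slope.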

TYK2, sequence (P29597 whole entry): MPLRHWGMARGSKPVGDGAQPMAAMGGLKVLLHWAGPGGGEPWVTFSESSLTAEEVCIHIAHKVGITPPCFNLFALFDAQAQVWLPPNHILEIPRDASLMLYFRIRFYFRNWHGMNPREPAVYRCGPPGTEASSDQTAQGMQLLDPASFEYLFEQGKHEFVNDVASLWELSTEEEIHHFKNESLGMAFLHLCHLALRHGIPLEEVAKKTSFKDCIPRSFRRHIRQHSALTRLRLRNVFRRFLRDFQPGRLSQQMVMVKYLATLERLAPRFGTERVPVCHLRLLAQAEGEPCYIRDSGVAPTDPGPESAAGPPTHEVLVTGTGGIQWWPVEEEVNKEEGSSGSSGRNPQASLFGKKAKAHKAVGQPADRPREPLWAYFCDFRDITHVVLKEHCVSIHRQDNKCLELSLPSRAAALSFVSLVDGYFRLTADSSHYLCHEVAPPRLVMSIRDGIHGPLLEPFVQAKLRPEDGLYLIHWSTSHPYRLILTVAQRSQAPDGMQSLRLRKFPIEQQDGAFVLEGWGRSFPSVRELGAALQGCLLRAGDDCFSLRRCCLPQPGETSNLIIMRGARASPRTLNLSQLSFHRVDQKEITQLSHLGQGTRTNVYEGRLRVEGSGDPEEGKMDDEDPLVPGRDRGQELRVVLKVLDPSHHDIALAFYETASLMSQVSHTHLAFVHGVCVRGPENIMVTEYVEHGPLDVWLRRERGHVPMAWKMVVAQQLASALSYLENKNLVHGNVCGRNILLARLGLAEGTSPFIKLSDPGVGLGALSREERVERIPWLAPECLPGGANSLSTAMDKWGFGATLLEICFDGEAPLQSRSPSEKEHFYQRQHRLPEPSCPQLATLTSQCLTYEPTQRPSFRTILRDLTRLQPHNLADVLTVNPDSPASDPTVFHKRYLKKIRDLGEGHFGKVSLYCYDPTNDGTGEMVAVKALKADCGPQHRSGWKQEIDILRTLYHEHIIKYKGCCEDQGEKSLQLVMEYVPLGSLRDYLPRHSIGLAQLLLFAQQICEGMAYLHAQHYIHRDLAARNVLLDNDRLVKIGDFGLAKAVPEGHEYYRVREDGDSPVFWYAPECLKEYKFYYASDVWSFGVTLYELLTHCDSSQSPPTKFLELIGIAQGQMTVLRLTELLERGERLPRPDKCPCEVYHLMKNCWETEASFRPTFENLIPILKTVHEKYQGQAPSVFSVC
T1 sequence (P23458 849-1154): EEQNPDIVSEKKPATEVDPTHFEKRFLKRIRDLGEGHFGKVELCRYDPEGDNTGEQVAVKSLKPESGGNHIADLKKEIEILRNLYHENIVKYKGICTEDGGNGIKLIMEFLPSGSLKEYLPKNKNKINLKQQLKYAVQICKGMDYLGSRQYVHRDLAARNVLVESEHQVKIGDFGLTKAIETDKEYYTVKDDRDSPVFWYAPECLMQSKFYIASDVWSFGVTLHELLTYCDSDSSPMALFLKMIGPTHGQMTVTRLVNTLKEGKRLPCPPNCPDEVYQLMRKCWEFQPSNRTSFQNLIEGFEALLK
T4 sequence (Q9UM73 19-1620): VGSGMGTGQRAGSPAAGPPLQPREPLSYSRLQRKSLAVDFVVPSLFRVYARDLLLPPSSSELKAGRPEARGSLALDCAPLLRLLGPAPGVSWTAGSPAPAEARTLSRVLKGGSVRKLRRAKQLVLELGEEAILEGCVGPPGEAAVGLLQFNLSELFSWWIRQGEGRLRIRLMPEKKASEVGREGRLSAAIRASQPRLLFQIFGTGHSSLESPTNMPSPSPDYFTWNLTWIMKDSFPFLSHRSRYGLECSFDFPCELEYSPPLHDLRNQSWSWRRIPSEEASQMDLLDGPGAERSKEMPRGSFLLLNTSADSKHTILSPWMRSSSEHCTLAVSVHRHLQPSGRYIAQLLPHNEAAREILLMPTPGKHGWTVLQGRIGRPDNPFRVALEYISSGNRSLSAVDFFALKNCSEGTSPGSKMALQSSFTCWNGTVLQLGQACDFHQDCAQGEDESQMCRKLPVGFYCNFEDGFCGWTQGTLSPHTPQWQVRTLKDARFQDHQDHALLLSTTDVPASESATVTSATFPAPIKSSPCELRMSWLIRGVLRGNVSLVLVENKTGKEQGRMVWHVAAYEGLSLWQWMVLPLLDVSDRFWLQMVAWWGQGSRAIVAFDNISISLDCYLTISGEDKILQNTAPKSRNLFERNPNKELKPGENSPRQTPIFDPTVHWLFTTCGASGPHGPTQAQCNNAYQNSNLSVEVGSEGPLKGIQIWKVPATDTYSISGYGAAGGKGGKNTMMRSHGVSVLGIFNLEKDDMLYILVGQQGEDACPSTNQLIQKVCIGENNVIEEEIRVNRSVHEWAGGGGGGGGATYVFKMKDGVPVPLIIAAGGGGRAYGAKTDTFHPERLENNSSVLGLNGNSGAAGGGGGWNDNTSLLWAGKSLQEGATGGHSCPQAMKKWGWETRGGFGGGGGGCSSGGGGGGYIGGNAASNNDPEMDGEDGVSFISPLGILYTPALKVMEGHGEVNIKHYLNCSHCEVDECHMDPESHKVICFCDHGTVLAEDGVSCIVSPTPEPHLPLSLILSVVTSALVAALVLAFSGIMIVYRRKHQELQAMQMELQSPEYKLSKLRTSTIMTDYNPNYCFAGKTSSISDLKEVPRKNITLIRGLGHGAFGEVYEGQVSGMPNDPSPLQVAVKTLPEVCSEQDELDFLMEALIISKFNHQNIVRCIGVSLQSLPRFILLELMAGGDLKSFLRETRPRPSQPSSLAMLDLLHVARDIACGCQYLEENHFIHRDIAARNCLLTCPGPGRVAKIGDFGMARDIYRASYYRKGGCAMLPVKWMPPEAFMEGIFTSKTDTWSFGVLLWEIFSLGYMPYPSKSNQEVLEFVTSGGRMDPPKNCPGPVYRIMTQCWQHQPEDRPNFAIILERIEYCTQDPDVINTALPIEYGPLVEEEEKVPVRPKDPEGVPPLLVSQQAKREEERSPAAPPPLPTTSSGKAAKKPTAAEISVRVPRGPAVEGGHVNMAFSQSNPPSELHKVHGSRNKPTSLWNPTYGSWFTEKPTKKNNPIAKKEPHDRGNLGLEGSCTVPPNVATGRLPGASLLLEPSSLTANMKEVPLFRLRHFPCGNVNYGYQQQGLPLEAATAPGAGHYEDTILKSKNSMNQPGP
T2 sequence (O60674 828-1132): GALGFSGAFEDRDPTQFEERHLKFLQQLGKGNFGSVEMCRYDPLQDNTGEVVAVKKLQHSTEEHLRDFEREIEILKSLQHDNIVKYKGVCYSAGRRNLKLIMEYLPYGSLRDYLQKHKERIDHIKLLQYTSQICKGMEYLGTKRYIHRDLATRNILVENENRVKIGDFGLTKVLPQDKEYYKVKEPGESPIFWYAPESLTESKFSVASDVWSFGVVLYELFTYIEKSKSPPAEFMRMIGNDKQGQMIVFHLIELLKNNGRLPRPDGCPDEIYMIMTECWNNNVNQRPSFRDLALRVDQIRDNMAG
T3 sequence (P52333 781-1124): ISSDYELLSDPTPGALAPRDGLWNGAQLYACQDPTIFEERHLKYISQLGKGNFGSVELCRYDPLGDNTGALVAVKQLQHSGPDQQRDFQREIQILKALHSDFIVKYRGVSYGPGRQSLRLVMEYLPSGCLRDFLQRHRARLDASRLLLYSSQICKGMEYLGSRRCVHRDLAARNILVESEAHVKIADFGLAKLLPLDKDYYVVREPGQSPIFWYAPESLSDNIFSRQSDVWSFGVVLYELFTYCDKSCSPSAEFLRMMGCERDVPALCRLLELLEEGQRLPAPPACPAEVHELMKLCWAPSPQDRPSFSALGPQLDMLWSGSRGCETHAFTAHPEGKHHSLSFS

IC50 [1] [µM] | IC50 [2] [µM] | IC50 [3] [µM] | IC50 (TYK2) [µM] | ALK % of inhibition at a concentration of 500 nM or 1 mM [4] [%] | Compound
0.042 | 0.049 | 0.108 | 0.115 | 26 | O=C(Nc1ccc2cc1CCc1cccc(c1)Nc1ncc(Cl)c(n1)N2)C1CCN(C(=O)c2ccc3c(c2)OCO3)CC1 [Example A31, 1-(1,3-Benzodioxol-5-ylcarbonyl)-N-[6-chloro-2,4,8,22-tetraazatetracyclo[14.3.1.1(3,7).1(9,13)]docosa-1(20),3(22),4,6,9(21),10,12,16,18-nonaen-12-yl]piperidine-4-carboxamide trifluoroacetate]
0.03 | 0.029 | 0.035 | 0.066 | 30 | O=C(Nc1ccc2cc1CCc1cccc(c1)Nc1ncc(Cl)c(n1)N2)C1CCN(C(=O)c2ccco2)CC1 [Example A32, N-[6-Chloro-2,4,8,22-tetraazatetracyclo[14.3.1.1(3,7).1(9,13)]docosa-1(20), 3(22),4,6,9(21),10,12,16,18-nonaen-12-yl]-1-(2-furoyl)piperidine-4-carboxamide trifluoroacetate]
0.03 | 0.038 | 0.102 | 0.075 | 26 | N#Cc1ccc(C(=O)N2CCC(C(=O)Nc3ccc4cc3CCc3cccc(c3)Nc3ncc(Cl)c(n3)N4)CC2)cc1 [Example A33, N-[6-Chloro-2,4,8,22-tetraazatetracyclo[14.3.1.1(3,7).1(9,13)]docosa-1(20), 3(22),4,6,9(21),10,12,16,18-nonaen-12-yl]-1-(4-cyanobenzoyl)piperidine-4-carboxamide trifluoroacetate]
0.446 | 0.22 | > 1 | 0.343 | 5 | Cc1noc(C)c1C(=O)N1CCC(C(=O)Nc2ccc3cc2CCc2cccc(c2)Nc2ncc(Cl)c(n2)N3)CC1 [Example A34, N-[6-Chloro-2,4,8,22-tetraazatetracyclo[14.3.1.1(3,7).1(9,13)]docosa-1(20), 3(22),4,6,9(21),10,12,16,18-nonaen-12-yl]-1-[(3,5-dimethylisoxazol-4-yl)carbonyl]piperidine-4-carboxamide trifluoroacetate]
0.042 | 0.062 | 0.082 | 0.228 | 38 | O=C(Nc1ccc2cc1CCc1cccc(c1)Nc1ncc(Cl)c(n1)N2)C1CCN(C(=O)Cc2ccccc2)CC1 [Example A35, N-[6-Chloro-2,4,8,22-tetraazatetracyclo[14.3.1.1(3,7).1(9,13)]docosa-1(20),3(22),4,6,9(21),10,12,16,18-nonaen-12-yl]-1-(phenylacetyl)piperidine-4-carboxamide trifluoroacetate]
0.0024 | 0.0067 | 0.026 | 0.027 | 48 | O=C(Nc1ccc2cc1CCc1cccc(c1)Nc1ncc(Cl)c(n1)N2)C1CCN(C(=O)Nc2ccccc2)CC1 [Example A36, N(4)-[6-Chloro-2,4,8,22-tetraazatetracyclo[14.3.1.1(3,7).1(9,13)]docosa-1(20),3(22),4,6,9(21),10,12,16,18-nonaen-12-yl]-N(1)-phenylpiperidine-1,4-dicarboxamide trifluoroacetate]
0.0066 | 0.016 | 0.046 | 0.048 | 55 | COc1cccc(NC(=O)N2CCC(C(=O)Nc3ccc4cc3CCc3cccc(c3)Nc3ncc(Cl)c(n3)N4)CC2)c1 [Example A38, N(4)-[6-Chloro-2,4,8,22-tetraazatetracyclo[14.3.1.1(3,7).1(9,13)]docosa-1(20),3(22),4,6,9(21),10,12,16,18-nonaen-12-yl]-N(1)-(3-methoxyphenyl)piperidine-1,4-dicarboxamide trifluoroacetate]
0.019 | 0.036 | 0.066 | 0.077 | 39 | CSc1ccccc1NC(=O)N1CCC(C(=O)Nc2ccc3cc2CCc2cccc(c2)Nc2ncc(Cl)c(n2)N3)CC1 [Example A39, N(4)-[6-Chloro-2,4,8,22-tetraazatetracyclo[14.3.1.1(3,7).1(9,13)]docosa-1(20),3(22),4,6,9(21),10,12,16,18-nonaen-12-yl]-N(1)-[2-(methylthio)phenyl]piperidine-1,4-dicarboxamide trifluoroacetate]
0.0058 | 0.012 | 0.157 | 0.102 | 58 | Cn1ccc2c(NC(=O)N3CCC(C(=O)Nc4ccc5cc4CCc4cccc(c4)Nc4ncc(Cl)c(n4)N5)CC3)cccc21 [Example A41, N(4)-[6-Chloro-2,4,8,22-tetraazatetracyclo[14.3.1.1(3,7).1(9,13)]docosa-1(20),3(22),4,6,9(21),10,12,16,18-nonaen-12-yl]-N(1)-(1-methyl-1H-indol-4-yl)piperidine-1,4-dicarboxamide trifluoroacetate]
0.021 | 0.024 | 0.058 | 0.183 | 34 | O=C(Nc1ccc2cc1CCc1cccc(c1)Nc1ncc(Cl)c(n1)N2)C1CCN(S(=O)(=O)c2ccccc2)CC1 [Example A42, N-[6-Chloro-2,4,8,22-tetraazatetracyclo[14.3.1.1(3,7).1(9,13)]docosa-1(20), 3(22),4,6,9(21),10,12,16,18-nonaen-12-yl]-1-(phenylsulfonyl)piperidine-4-carboxamide trifluoroacetate]
0.001 | 0.0048 | 0.036 | 0.048 | 32 | O=C(Nc1ccc2cc1CCc1cccc(c1)Nc1ncc(Cl)c(n1)N2)C1CCN(C(=S)Nc2ccccc2)CC1 [Example A43, 1-(Anilinocarbonothioyl)-N-[6-chloro-2,4,8,22-tetraazatetracyclo[14.3.1.1(3,7).1(9,13)]docosa-1(20),3(22),4,6,9(21),10,12,16,18-nonaen-12-yl]piperidine-4-carboxamide trifluoroacetate]
0.026 | 0.052 | 0.071 | 0.169 | 21 | O=C(Nc1ccc2cc1CCc1cccc(c1)Nc1ncc(Cl)c(n1)N2)C1CCCNC1 (centres unmarked) [Example A44, N-[6-Chloro-2,4,8,22-tetraazatetracyclo[14.3.1.1(3,7).1(9,13)]docosa-1(20), 3(22),4,6,9(21),10,12,16,18-nonaen-12-yl]piperidine-3-carboxamide bis(trifluoroacetate)]
0.0096 | 0.02 | 0.031 | 0.039 | 29 | O=C(Nc1ccc2cc1CCc1cccc(c1)Nc1ncc(Cl)c(n1)N2)[C@@H]1CCNC1 [Example A45, (3R)—N-[6-chloro-2,4,8,22-tetraazatetracyclo[14.3.1.1(3,7).1(9,13)]docosa-1(20),3(22),4,6,9(21),10,12,16,18-nonaen-12-yl]pyrrolidine-3-carboxamide bis(trifluoroacetate)]

From US8871753B2, “Macrocyclic compounds and their use as kinase inhibitors” (Incyte Corporation, priority 2008, dated 2014)
